Assay results taken from patent publication US9862679B2, “Potent and selective inhibitors of monoamine transporters; method of making; and use thereof” (priority 2013, dated 2018).
Where “and” joins values, the source holds several entries; their conditions need not be identical. Equal entries are not always repeated. Where two headings read alike, the source gives them in different places.

Columns and labels:
[1] = target: dopamine transporter (DAT) (Rattus norvegicus (Rat), UniProt P23977); assay: Dopamine Transporter Binding Assay ([3H]WIN 35428, rat striatal membranes)
[2] = target: norepinephrine transporter (NET) (Rattus norvegicus, UniProt Q63380); settings: rat brain membranes
Experimental: Binding affinities of all compounds were evaluated at the DAT, SERT, and NET in rat brain membranes using previously described methods:
Norepinephrine Transporter Binding Assay. Brains from male Sprague-Dawley rats weighing 200-225 g (Taconic Labs, Germantown, N.Y.) were removed, frontal cortex dissected and rapidly frozen. Membranes were prepared by homogenizing tissues in 20 volumes (w/v) of 50 mM Tris containing 120 mM NaCl and 5 mM KCl, (pH 7.4 at 25° C.), using a Brinkman Polytron and centrifuged at 50,000×g for 10 min at 4° C. The resulting pellet was resuspended in buffer, recentrifuged and resuspended in buffer to a concentration of 80 mg/mL. Ligand binding experiments were conducted in assay tubes containing 0.5 mL buffer for 60 min at 0-4° C. […] Nonspecific binding was determined using 1 mM desipramine. Incubations were terminated by rapid filtration through Whatman GF/B filters, presoaked in 0.05% polyethylenimine, using a Brandel R48 filtering manifold (Brandel Instruments Gaithersburg, Md.). The filters were washed twice with 3 mL cold buffer and transferred to scintillation vials. Beckman Ready Value (3.0 mL) was added and the vials were counted using a Beckman 6000 liquid scintillation counter (Beckman Coulter Instruments, Fullerton, Calif.). […] All compounds were tested as racemic mixtures.

Sigma 1 = Sigma 1 (Homo sapiens (Human), UniProt Q99720); assay: Sigma 1 binding affinity (Table 5)
[3] = target: T1, serotonin transporter (SERT) (Rattus norvegicus (Rat), UniProt P31652); settings: for Ki: rat brain membranes
Experimental: (§3) Brains from male Sprague-Dawley rats weighing 200-225 g (Taconic Labs, Germantown, N.Y.) were removed, midbrain dissected and rapidly frozen. […] Nonspecific binding was determined using 10 mM fluoxetine. […] The filters were washed twice with 3 mL cold buffer and transferred to scintillation vials. Beckman Ready Value (3.0 mL) was added and the vials were counted the next day using a Beckman 6000 liquid scintillation counter (Beckman Coulter Instruments, Fullerton, Calif.). […] Data were analyzed with GraphPad Prism software (San Diego, Calif.).

Sigma 2 = Sigma 2 (Homo sapiens (Human), UniProt Q5BJF2); assay: Sigma 2 binding affinity (Table 5)
[4] = Phase II (glucuronidation, UDPGA) metabolic stability in mouse liver microsomes; assay type: in vitro ADME
Experimental: (§1) Phase I and phase II metabolic stability assay for was conducted in mouse liver microsomes. For phase I metabolism, the reaction was carried out with 100 mM potassium phosphate buffer, pH 7.4, in the presence of NADPH regenerating system (1.3 mM NADPH, 3.3 mM glucose 6-phosphate, 3.3 mM MgCl2, 0.4 U/mL glucose-6-phosphate dehydrogenase, 50 μM sodium citrate). Reactions in duplicate were initiated by addition of the liver microsomes to the incubation mixture (compound final concentration was 10 μM; 0.5 mg/mL microsomes). For phase II glucuronidation reaction compound was added to TRIS-HCl buffer (50 mM, pH 7.5) with microsomes (0.5 mg/mL), along with MgCl2 (8 mM), and alamethicin (25 μg/mL) and pre-incubated at 37° C. The reaction was initiated (in duplicate) with UDPGA at a final concentration of 2 mM. Negative controls in the absence NADPH and UDPGA were carried for both phase I and phase II metabolism respectively, to determine the specific cofactor free degradation. […] At predetermined times (0, 15, 30 and 60 min) aliquots of the mixture were removed and the reaction quenched by addition of two times the volume of ice cold acetonitrile spiked with the internal standard. Compound disappearance was monitored over time using a liquid chromatography and tandem mass spectrometry (LC/MS/MS) method.
(§2) Compounds were separated on an Agilent 1290 UPLC system with a c18 column using a gradient run of 55:45-5:95 water:acetonitrile over 3.2 minutes and detected on an Agilent 6520 QTOF mass spectrometer.

[5] = target: T1, serotonin transporter (SERT); assay: biochemical
Experimental: as §3

[6] = Metabolic stability in mouse plasma; assay type: in vitro ADME; settings: mouse plasma, 10 μM, 0 min
Experimental: The metabolic stability was evaluated using mouse plasma and mouse liver microsomes.

[7] = Phase I metabolic stability in mouse liver microsomes (NADPH); assay type: in vitro ADME; settings: 10 μM
Experimental: as §1, §2

[8] = rat brain membranes, Table 5 piperazinyl derivatives, read-out: DAT Ki ± SEM
[9] = read-out: NET Ki ± SEM, Table 5 piperazinyl derivatives
[10] = read-out: SERT Ki ± SEM, Table 5 piperazinyl derivatives
[11] = Table 5 piperazinyl derivatives, read-out: Sigma 1 Ki ± SEM
[12] = Table 5 piperazinyl derivatives, read-out: Sigma 2 Ki ± SEM
[13] = read-out: NET Ki, Table 5, bound in M
[14] = rat brain membranes, Table 1 thioacetamides and sulfinylacetamides, read-out: Ki (nM) ± S.E.M. DAT
[15] = read-out: Ki (nM) ± S.E.M. NET, Table 1 thioacetamides and sulfinylacetamides
[16] = read-out: Ki (nM) ± S.E.M. SERT, Table 2 thioethanamines and sulfinylethanamines

Sequence of Sigma 2 (Q5BJF2 whole entry): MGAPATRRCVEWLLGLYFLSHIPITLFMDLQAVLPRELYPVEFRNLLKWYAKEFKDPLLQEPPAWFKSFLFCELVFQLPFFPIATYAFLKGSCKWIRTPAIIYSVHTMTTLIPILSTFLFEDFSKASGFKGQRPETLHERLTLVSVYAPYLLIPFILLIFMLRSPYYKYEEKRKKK
Sequence of Sigma 1 (Q99720 whole entry): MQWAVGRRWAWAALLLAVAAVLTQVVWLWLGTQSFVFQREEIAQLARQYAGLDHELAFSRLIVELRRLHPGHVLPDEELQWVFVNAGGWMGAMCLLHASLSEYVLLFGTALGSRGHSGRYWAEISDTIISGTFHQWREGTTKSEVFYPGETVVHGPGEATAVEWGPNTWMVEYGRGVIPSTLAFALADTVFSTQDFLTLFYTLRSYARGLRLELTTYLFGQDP
Sequence of norepinephrine transporter (NET) (Q63380 1-617): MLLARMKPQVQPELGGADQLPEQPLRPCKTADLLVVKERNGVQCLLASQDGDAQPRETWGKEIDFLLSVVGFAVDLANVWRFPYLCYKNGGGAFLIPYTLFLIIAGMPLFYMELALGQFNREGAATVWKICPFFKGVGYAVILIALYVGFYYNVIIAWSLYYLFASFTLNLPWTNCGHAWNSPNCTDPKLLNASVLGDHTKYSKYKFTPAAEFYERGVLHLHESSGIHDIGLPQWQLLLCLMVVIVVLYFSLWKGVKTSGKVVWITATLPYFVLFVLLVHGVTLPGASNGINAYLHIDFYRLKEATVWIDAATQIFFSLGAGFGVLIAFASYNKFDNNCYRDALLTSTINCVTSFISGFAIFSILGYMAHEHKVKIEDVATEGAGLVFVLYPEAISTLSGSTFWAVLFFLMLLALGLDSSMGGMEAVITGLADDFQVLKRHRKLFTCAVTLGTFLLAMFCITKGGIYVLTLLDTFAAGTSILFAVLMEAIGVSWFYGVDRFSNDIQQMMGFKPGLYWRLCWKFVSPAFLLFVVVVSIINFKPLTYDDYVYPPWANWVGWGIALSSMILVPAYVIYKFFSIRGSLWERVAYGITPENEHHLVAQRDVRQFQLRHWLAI
T1 sequence (P31652 whole entry): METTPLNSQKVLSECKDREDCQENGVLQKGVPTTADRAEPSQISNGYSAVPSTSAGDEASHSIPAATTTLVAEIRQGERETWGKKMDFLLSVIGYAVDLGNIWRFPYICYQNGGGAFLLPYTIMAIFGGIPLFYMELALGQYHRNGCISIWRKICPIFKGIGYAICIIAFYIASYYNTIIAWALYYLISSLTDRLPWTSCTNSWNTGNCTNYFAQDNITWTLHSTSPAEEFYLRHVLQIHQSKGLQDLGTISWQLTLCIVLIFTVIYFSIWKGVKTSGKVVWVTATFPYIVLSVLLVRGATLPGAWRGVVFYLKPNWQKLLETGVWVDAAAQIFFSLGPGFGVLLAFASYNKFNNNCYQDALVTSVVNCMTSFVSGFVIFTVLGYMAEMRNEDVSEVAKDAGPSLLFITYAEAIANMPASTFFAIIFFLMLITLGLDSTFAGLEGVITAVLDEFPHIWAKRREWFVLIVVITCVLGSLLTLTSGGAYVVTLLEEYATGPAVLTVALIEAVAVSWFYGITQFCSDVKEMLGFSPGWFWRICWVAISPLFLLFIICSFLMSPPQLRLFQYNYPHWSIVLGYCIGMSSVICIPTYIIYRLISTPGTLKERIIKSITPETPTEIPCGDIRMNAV
Sequence of dopamine transporter (DAT) (P23977 whole entry): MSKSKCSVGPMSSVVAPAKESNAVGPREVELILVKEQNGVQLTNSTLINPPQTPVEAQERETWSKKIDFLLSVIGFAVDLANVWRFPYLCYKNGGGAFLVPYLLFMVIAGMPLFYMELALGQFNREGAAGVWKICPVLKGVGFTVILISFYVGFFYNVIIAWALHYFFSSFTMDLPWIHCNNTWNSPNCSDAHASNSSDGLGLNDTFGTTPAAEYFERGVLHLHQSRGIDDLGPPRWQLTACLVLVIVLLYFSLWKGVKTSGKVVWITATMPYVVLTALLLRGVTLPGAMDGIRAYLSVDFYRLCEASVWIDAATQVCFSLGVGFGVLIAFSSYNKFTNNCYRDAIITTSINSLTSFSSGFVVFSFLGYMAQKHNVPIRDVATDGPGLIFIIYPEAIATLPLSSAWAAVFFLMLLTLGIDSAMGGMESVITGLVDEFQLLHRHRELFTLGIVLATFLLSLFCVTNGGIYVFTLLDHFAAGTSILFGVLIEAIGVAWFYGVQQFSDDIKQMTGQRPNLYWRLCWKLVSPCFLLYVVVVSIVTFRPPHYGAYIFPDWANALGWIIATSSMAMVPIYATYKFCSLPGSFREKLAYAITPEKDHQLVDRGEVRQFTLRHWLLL

Compound `CC(O)CN1CCN(CCSC(c2ccccc2)c2ccccc2)CC1` (racemic) [Compound 9a, 1-(4-(2-(Benzhydrylthio)ethyl)piperazin-1-yl)propan-2-ol] has a Ki [1, 8] of 49.6 ± 4.31 nM, a Ki [2, 9] of 44500 ± 2400 nM and a Ki (Sigma 1) of 0.94 ± 0.07 nM. It also gave a Ki [3, 10] of 26700 ± 2630 nM and a Ki (Sigma 2) of 92.6 ± 13.5 nM.

`OC(Cc1ccccc1)CN1CCN(CCSC(c2ccccc2)c2ccccc2)CC1` (racemic) [Compound 9g, 1-(4-(2-(Benzhydrylthio)ethyl)piperazin-1-yl)-3-phenylpropan-2-ol] showed a Ki [1, 8] of 2.54 ± 0.23 nM, a Ki [2, 9] of 1430 ± 118 nM and a Ki (Sigma 1; [11]) of 30 ± 3.81 nM. The Ki (Sigma 2; [12]) was 31.8 ± 3.63 nM.

In the case of `OC(Cc1ccccc1)CN1CCN(CCSC(c2ccc(F)cc2)c2ccc(F)cc2)CC1` (racemic) [Compound 9j, 1-(4-(2-((Bis(4-fluorophenyl)methyl)thio)ethyl)piperazin-1-yl)-3-phenylpropan-2-ol], the Ki [2, 9] is reported as 1950 ± 227 nM, the Ki (Sigma 1) is reported as 95.4 ± 13.4 nM and the Ki [3, 10] is reported as 213 nM. For the same compound, the Ki (Sigma 2) was 38.6 ± 0.94 nM.

`CC(O)CN1CCN(CC[S+]([O-])C(c2ccccc2)c2ccccc2)CC1` (racemic) [Compound 10a, 1-(4-(2-(Benzhydrylsulfinyl)ethyl)piperazin-1-yl)propan-2-ol] showed a Ki ([1]; read-out: DAT Ki ± SEM) of 636 ± 14.7 nM, a Ki [2, 13] greater than 100000 nM and a Ki (Sigma 1; [11]) of 861 ± 109 nM. For the same compound, the Ki ([3]; read-out: SERT Ki, Table 5, bound in M) was greater than 100000 nM and the Ki (Sigma 2; [12]) was 3930 ± 208 nM.

With `CC(O)CN1CCN(CC[S+]([O-])C(c2ccc(F)cc2)c2ccc(F)cc2)CC1` (racemic) [Compound 10d, 1-(4-(2-((Bis(4-fluorophenyl)methyl)sulfinyl)ethyl)piperazin-1-yl)propan-2-ol] the Ki [2, 13] was greater than 100000 nM, the Ki (Sigma 1; [11]) was 1010 ± 134 nM and the Ki [3, 10] was 50300 ± 5760 nM. It also gave a Ki (Sigma 2; [12]) of 1800 ± 264 nM.

In the case of `[O-][S+](CCN1CCN(CC(O)Cc2ccccc2)CC1)C(c1ccccc1)c1ccccc1` (racemic) [Compound 10g, 1-(4-(2-(Benzhydrylsulfinyl)ethyl)piperazin-1-yl)-3-phenylpropan-2-ol], the Ki [1, 8] is reported as 3.43 ± 0.5 nM, the Ki [2, 9] is reported as 25300 ± 2040 nM and the Ki (Sigma 1; [11]) is reported as 983 ± 103 nM. It also gave a Ki [3, 10] of 21700 ± 2020 nM and a Ki (Sigma 2; [12]) of 316 ± 25.2 nM.

With `Cc1cc(=O)oc2cc(O)ccc12` [4 Methyl Umbelliferone, 4-methylumbelliferone, reference compound] the “Metabolic stability, Phase II (% remaining)” value ([4]; 0 min) was 100% and the “Metabolic stability, Phase II (% remaining)” value ([4]; 60 min) was 3.10%.

`O=C(CSC(c1ccccc1)c1ccccc1)NCC1CC1` [Compound 2o, 2-(Benzhydrylthio)-N-(cyclopropylmethyl)acetamide] gave a Ki [1, 14] of 13900 nM, a Ki [2, 15] greater than 100000 nM and a Ki [5] of 20900 nM.

`O=C(CSC(c1ccc(F)cc1)c1ccc(F)cc1)NCC1CC1` [Compound 2p, 2-((Bis(4-fluorophenyl)methyl)thio)-N-(cyclopropylmethyl)acetamide] gave a Ki [1, 14] of 6860 nM, a Ki [2, 15] of 57600 nM and a Ki [5] of 35400 nM.

Compound `O=C(CSC(c1ccc(Br)cc1)c1ccc(Br)cc1)NCC1CC1` [Compound 2q, 2-((Bis(4-bromophenyl)methyl)thio)-N-(cyclopropylmethyl)acetamide] has a Ki [1, 14] of 993 ± 139 nM, a Ki [2, 15] greater than 100000 nM and a Ki [5] of 7270 nM.

With `Cc1ccc(C(c2ccc(C)cc2)[S+]([O-])CC(N)=O)cc1` (stereo not drawn) [Compound 3a, 2-((Di-p-tolylmethyl)sulfinyl)acetamide] the Ki [1, 14] was 12700 nM, the Ki [2, 15] was greater than 100000 nM and the Ki [5] was greater than 100000 nM.

For `NC(=O)C[S+]([O-])C(c1cccc(F)c1)c1cccc(F)c1` (stereo not drawn) [Compound 3c, 2-((Bis(3-fluorophenyl)methyl)sulfinyl)acetamide], the Ki [1, 14] was 6180 nM, the Ki [2, 15] was greater than 100000 nM and the Ki [5] was greater than 100000 nM.

In the case of `NC(=O)C[S+]([O-])C(c1cccc(Cl)c1)c1cccc(Cl)c1` (stereo not drawn) [Compound 3d, 2-((Bis(3-chlorophenyl)methyl)sulfinyl)acetamide], the Ki [2, 15] is reported as greater than 100000 nM and the Ki [5] is reported as greater than 100000 nM.

For `NC(=O)C[S+]([O-])C(c1ccccc1)c1cccc(Br)c1` (stereo not drawn) [Compound 3e, 2-(((3-Bromophenyl)(phenyl)methyl)sulfinyl)acetamide], the Ki [1, 14] was 550 ± 7.4 nM, the Ki [2, 15] was greater than 100000 nM and the Ki [5] was greater than 100000 nM.

For `NCCSC(c1ccc(Cl)cc1)c1ccc(Cl)cc1` [Compound 4b, 2-((bis(4-chlorophenyl)methyl)thio)ethan-1-amine], the Ki [5] was less than 30 nM and the Ki [3, 16] was 30 nM and 29.9 nM.

For `NCCSC(c1ccc(Br)cc1)c1ccc(Br)cc1` [Compound 4c, 2-((bis(4-bromophenyl)methyl)thio)ethan-1-amine], the “improvement in DAT affinity, halogen-substituted v. unsubstituted analogue” value [1] was 3 fold, the Ki ([1]; read-out: Ki (nM) ± S.E.M. DAT) was 488 ± 52.2 nM and the Ki [5] was less than 30 nM. The “increase in SERT affinity, halogen-substituted v. unsubstituted analogue” value ([3]; 2i v. 2g (Table 1), 4c v. 4a (Table 2)) was 9 fold and the Ki [3, 16] was 26 nM and 26.3 nM.

`c1ccc(CCCN2CCN(CCSC(c3ccccc3)c3ccccc3)CC2)cc1` [Compound 7a, 1-(2-(Benzhydrylthio)ethyl)-4-(3-phenylpropyl)piperazine] gave a Ki [1, 8] of 3.58 ± 0.16 nM, a Ki [2, 9] of 988 nM and a Ki (Sigma 1) of 19.9 ± 2.59 nM. The Ki [3, 10] was 1050 ± 152 nM and the Ki (Sigma 2) was 16.8 ± 2.15 nM.

`Fc1ccc(C(SCCN2CCN(CCCc3ccccc3)CC2)c2ccc(F)cc2)cc1` [Compound 7b, 1-(2-((Bis(4-fluorophenyl)methyl)thio)ethyl)-4-(3-phenylpropyl)piperazine] gave a Ki [1, 8] of 4.5 ± 0.34 nM, a Ki [2, 9] of 1890 ± 116 nM and a Ki (Sigma 1) of 59.5 ± 5.04 nM. The Ki [3, 10] was 285 nM and the Ki (Sigma 2) was 28.5 ± 2.14 nM.

Compound `[O-][S+](CCN1CCN(CCCc2ccccc2)CC1)C(c1ccccc1)c1ccccc1` (stereo not drawn) [Compound 8a, 1-(2-(Benzhydrylsulfinyl)ethyl)-4-(3-phenylpropyl)piperazine] has a Ki ([1]; read-out: DAT Ki ± SEM) of 3.17 ± 0.11 nM, a Ki [2, 9] of 5540 ± 808 nM and a Ki (Sigma 1) of 116 ± 1.24 nM. For the same compound, the Ki [3, 10] was 7220 ± 944 nM and the Ki (Sigma 2) was 20.5 ± 0.43 nM.

For `[O-][S+](CCN1CCN(CCCc2ccccc2)CC1)C(c1ccc(F)cc1)c1ccc(F)cc1` (stereo not drawn) [Compound 8b, 1-(2-((Bis(4-fluorophenyl)methyl)sulfinyl)ethyl)-4-(3-phenylpropyl)piperazine], the Ki ([1]; read-out: DAT Ki ± SEM) was 2.92 ± 0.38 nM, the Ki [2, 9] was 4280 ± 343 nM and the Ki (Sigma 1; [11]) was 42.4 ± 5.1 nM. It also gave a Ki (Sigma 2; [12]) of 25.9 ± 1.11 nM.

In the case of `CCN(CC)CCOC(=O)c1ccc(N)cc1` [Procaine, reference compound], the “Metabolic stability, Plasma (% remaining)” value [6] is reported as 100%.

In the case of `C[C@]12CC[C@H]3[C@@H](CCC4=CC(=O)CC[C@@]43C)[C@@H]1CC[C@@H]2O` [Testosterone, reference compound], the “Metabolic stability, Phase I (% remaining)” value ([7]; 0 min) is reported as 100% and the “Metabolic stability, Phase I (% remaining)” value ([7]; 60 min) is reported as 0%.
